The results in this text go back to ChEMBL document CHEMBL3616432, “(+)-Dehydroabietylamine derivatives target triple-negative breast cancer” (Eur J Med Chem, 2015).

Calls of active or inactive are those of the source. The calls are words filed in the database; no cut-off is given here.

The test system of the first series is MDA-MB-231. As to the kind of experiment: Antiproliferative activity against human triple-negative MDA-MB-231 cells after 72 hrs by CellTiter-Glo assay.
Details: not given
The format is functional, cell-based. (In general: In ATP-based viability assays light output follows the ATP content of the culture.)
Turning to `C=C[C@@]1(C)C=C2CC[C@@H]3[C@](C)(CCC[C@@]3(C)C(=O)O)[C@H]2CC1`, the result was inactive.

The next series concerns MDA-MB-231. Nature of the series: Antiproliferative activity against human triple-negative MDA-MB-231 cells at <= 50 uM after 72 hrs by CellTiter-Glo assay. In kind it is functional, cell-based.
Details: not given
Turning to `CC(C)c1cc2c(c(O)c1O)[C@@]1(C(=O)O)CCCC(C)(C)[C@@H]1CC2` [CARNOSIC ACID], the outcome was Active.
With `CC(C)c1ccc2c(c1)CC[C@H]1[C@](C)(CN)CCC[C@]21C`, the outcome was Active.
Turning to `CC(C)c1ccc2c(c1)CC[C@H]1[C@](C)(C(=O)O)CCC[C@]21C` [DEHYDROABIETIC ACID], the outcome was Active.

The subject of another series is HEK293. Nature of the series: Cytotoxicity against HEK293 cells at <= 50 uM after 72 hrs by CellTiter-Glo assay. The format is cell-based. As to conditions: human, hek293, 72 h.
As for `CC(C)c1cc2c(c(O)c1O)[C@@]1(C(=O)O)CCCC(C)(C)[C@@H]1CC2` [CARNOSIC ACID], the Activity result is on record as “Non-toxic”.
On the same count and under the same terms, for `CC(C)c1ccc2c(c1)CC[C@H]1[C@](C)(CN)CCC[C@]21C` the value was “Non-toxic”; for `CC(C)c1ccc2c(c1)CC[C@H]1[C@](C)(C(=O)O)CCC[C@]21C` [DEHYDROABIETIC ACID], “Non-toxic”.

The test system of a further series is HepG2. Nature of the series: Cytotoxicity against human HepG2 cells at <= 50 uM after 72 hrs by CellTiter-Glo assay. In kind it is cell-based. The following applies: hepg2, 72 h.
`CC(C)c1cc2c(c(O)c1O)[C@@]1(C(=O)O)CCCC(C)(C)[C@@H]1CC2` [CARNOSIC ACID]: the Activity entry is reported as “Non-toxic”.
As to `CC(C)c1ccc2c(c1)CC[C@H]1[C@](C)(CN)CCC[C@]21C`, the Activity result was “Non-toxic”.
For `CC(C)c1ccc2c(c1)CC[C@H]1[C@](C)(C(=O)O)CCC[C@]21C` [DEHYDROABIETIC ACID], the Activity entry is listed as “Non-toxic”.

Another series relates to MDA-MB-231. Nature of the series: Antiproliferative activity against human triple-negative MDA-MB-231 cells at >52.3 uM after 72 hrs by CellTiter-Glo assay. The format is functional, cell-based.
Details: not given
As for `CC(C)c1ccc2c(c1)CC[C@H]1[C@](C)(CNS(=O)(=O)c3cc(F)c(F)c(F)c3)CCC[C@]21C`, the outcome was Active.
Still for that read-out and setting: with `CC(C)c1ccc2c(c1)CC[C@H]1[C@](C)(CNS(=O)(=O)c3c(Cl)cc(Cl)cc3Cl)CCC[C@]21C` the entry was “Active”; with `CC(C)c1ccc2c(c1)CC[C@H]1[C@](C)(CNS(=O)(=O)c3ccc(F)cc3)CCC[C@]21C`, “Active”.
For `CC(C)c1ccc2c(c1)CC[C@H]1[C@](C)(CNS(=O)(=O)c3ccc(Cl)c(Cl)c3)CCC[C@]21C`, the result was Active.
Consider `CC(C)c1ccc2c(c1)CC[C@H]1[C@](C)(CNS(=O)(=O)c3cc(Cl)cc(Cl)c3O)CCC[C@]21C`, for which the outcome was Active.
As to `CC(C)c1ccc2c(c1)CC[C@H]1[C@](C)(CNS(=O)(=O)c3cc(Cl)cc(Cl)c3)CCC[C@]21C`, the result was Active.
As to `CC(C)c1ccc2c(c1)CC[C@H]1[C@](C)(CNS(=O)(=O)c3c(F)cccc3F)CCC[C@]21C`, the outcome was Active.
Same read-out and setting: for `CC(C)c1ccc2c(c1)CC[C@H]1[C@](C)(CNS(=O)(=O)c3cccc(Cl)c3Cl)CCC[C@]21C` the value was “Active”.
Take `CC(C)c1ccc2c(c1)CC[C@H]1[C@](C)(CNS(=O)(=O)c3cccc(F)c3)CCC[C@]21C`: the outcome was Active.

The subject of the next series is MDA-MB-231. As to the kind of experiment: Antiproliferative activity against human triple-negative MDA-MB-231 cells at 52 to 65 uM after 72 hrs by CellTiter-Glo assay. The format is functional, cell-based.
Details: not given
`CC(C)c1ccc2c(c1)CC[C@H]1[C@](C)(CNC(=O)c3ccc(I)cc3)CCC[C@]21C`: the result was inactive.
Turning to `CC(C)c1ccc2c(c1)CC[C@H]1[C@](C)(CNC(=O)c3ccc(F)cc3)CCC[C@]21C`, the outcome was inactive.
Still for that read-out and setting: for `Cc1ccsc1C(=O)NC[C@]1(C)CCC[C@]2(C)c3ccc(C(C)C)cc3CC[C@@H]12` the value was “inactive”; for `CC(C)c1ccc2c(c1)CC[C@H]1[C@](C)(CNC(=O)N3CCCCC3)CCC[C@]21C`, “inactive”.

For a further series, the species on record is Homo sapiens. As to the kind of experiment: Antiproliferative activity against human ER-positive MA11 cells at 52 to 65 uM after 72 hrs by CellTiter-Glo assay.
Details: not given
The format is functional.
Take `CC(C)c1ccc2c(c1)CC[C@H]1[C@](C)(CNC(=O)c3ccc(I)cc3)CCC[C@]21C`: the result was inactive.
For the molecule `CC(C)c1ccc2c(c1)CC[C@H]1[C@](C)(CNC(=O)c3ccc(F)cc3)CCC[C@]21C`, the result was inactive.
Turning to `Cc1ccsc1C(=O)NC[C@]1(C)CCC[C@]2(C)c3ccc(C(C)C)cc3CC[C@@H]12`, the result was inactive.
The same measure, in the same setting: with `CC(C)c1ccc2c(c1)CC[C@H]1[C@](C)(CNC(=O)N3CCCCC3)CCC[C@]21C` the entry was “inactive”.

The next series relates to MCF7. As to the kind of experiment: Antiproliferative activity against human ER-positive MCF7 cells at 52 to 65 uM after 72 hrs by CellTiter-Glo assay. In kind it is functional, cell-based.
Details: not given
As to `CC(C)c1ccc2c(c1)CC[C@H]1[C@](C)(CNC(=O)c3ccc(I)cc3)CCC[C@]21C`, the outcome was inactive.
As for `CC(C)c1ccc2c(c1)CC[C@H]1[C@](C)(CNC(=O)c3ccc(F)cc3)CCC[C@]21C`, the outcome was inactive.
The same measure, in the same setting: for `Cc1ccsc1C(=O)NC[C@]1(C)CCC[C@]2(C)c3ccc(C(C)C)cc3CC[C@@H]12` the value was “inactive”; for `CC(C)c1ccc2c(c1)CC[C@H]1[C@](C)(CNC(=O)N3CCCCC3)CCC[C@]21C`, “inactive”.

The next series deals with HEK293. Nature of the series: Cytotoxicity against HEK293 cells at 52 to 65 uM after 72 hrs by CellTiter-Glo assay. In kind it is cell-based. The following applies: human, hek293, 72 h.
Take `CC(C)c1ccc2c(c1)CC[C@H]1[C@](C)(CNC(=O)c3ccc(I)cc3)CCC[C@]21C`: the Activity entry is given as “Non-toxic”.
Still for that read-out and setting: for `CC(C)c1ccc2c(c1)CC[C@H]1[C@](C)(CNC(=O)c3ccc(F)cc3)CCC[C@]21C` the value was “Non-toxic”.
Turning to `Cc1ccsc1C(=O)NC[C@]1(C)CCC[C@]2(C)c3ccc(C(C)C)cc3CC[C@@H]12`, the Activity entry is recorded as “Non-toxic”.
On the same count and under the same terms, with `CC(C)c1ccc2c(c1)CC[C@H]1[C@](C)(CNC(=O)N3CCCCC3)CCC[C@]21C` the entry was “Non-toxic”.

The test system of a further series is HepG2. As to the kind of experiment: Cytotoxicity against human HepG2 cells at 52 to 65 uM after 72 hrs by CellTiter-Glo assay. The format is cell-based. The following applies: hepg2, 72 h.
As to `CC(C)c1ccc2c(c1)CC[C@H]1[C@](C)(CNC(=O)c3ccc(I)cc3)CCC[C@]21C`, the Activity entry is reported as “Non-toxic”.
Consider `CC(C)c1ccc2c(c1)CC[C@H]1[C@](C)(CNC(=O)c3ccc(F)cc3)CCC[C@]21C`, for which the Activity entry is given as “Non-toxic”.
Still for that read-out and setting: for `Cc1ccsc1C(=O)NC[C@]1(C)CCC[C@]2(C)c3ccc(C(C)C)cc3CC[C@@H]12` the value was “Non-toxic”; for `CC(C)c1ccc2c(c1)CC[C@H]1[C@](C)(CNC(=O)N3CCCCC3)CCC[C@]21C`, “Non-toxic”.
